Results published in US20050214279A1, “Methods for stimulating human leukocytes to kill bacteria, yeast and fungi in biofilms that have formed in/on prosthetic devices, catheters, tissues and organs in vivo” (priority 2003, published 2005).

System: human neutrophils
Test: Neutrophil phagocytosis and killing of S. epidermidis in fibrin gels
Format: cell-based
Details: bacteria 10^5 to 2×10^8 CFU/ml, neutrophils 10^6 to 4×10^8/ml (data not shown)
Procedure: To facilitate processing for microscopy we used 50% autologous plasma to form gels (40 μl in volume). To increase the frequency of neutrophils and S. epidermidis interactions the gels contained 4μ 10^8 neutrophils/ml (pre-incubated in medium with or without 20 μM cytochalasin D for 15 min at room temperature), 2μ 10^8 CFU/ml S. epidermidis, and 20 μM cytochalasin D, where indicated. The gels were incubated for 60 min at 37° C., fixed with 2.5% glutaraldehyde at 4° C., and then with 1% OsO4, stained en block with 1% uranyl acetate, dehydrated, and embedded in Epon. Sections ˜[…] thick were cut, stained sequentially with lead citrate and uranyl acetate, and examined in a Phillips 1200 transmission electron microscope. […]
In stirred suspensions, neutrophils must phagocytose bacteria to kill them. […] Second, cytochalasin D, which facilitates neutrophil secretions, blocked both phagocytosis (as measured by electron microscopy), and killing of S. epidermidis in fibrin gels at all bacterial (10^5 to 2×10^8 CFU/ml) and neutrophil concentrations (10^6 to 4×10^8/ml) tested (data not shown). […]

C=C1[C@@H](C)[C@H]2[C@H](Cc3ccccc3)NC(=O)[C@]23[C@H](OC(C)=O)/C=C/[C@@](C)(O)C(=O)[C@@H](C)C/C=C/[C@H]3[C@@H]1O [cytochalasin D]
killing of S. epidermidis in fibrin gels: blocked
phagocytosis (as measured by electron microscopy): blocked
